Source: US6511939B1, “Coronatine as an abscission agent” (priority 2001, dated 2003)

Assays:
Assay type in all cases: in vivo
Valencia orange [1] = assay: Fruit drop after spraying trees, Valencia orange; conditions: for % fruit drop, day 5: day 5, mean
Method: (§1) Data are the means of 10 replicate branches, with 10 fruit/branch. Bars above and below the means indicate standard error of the mean.
(§2) Solutions of COR were prepared that contained 200 mg/L or 300 mg/L of COR dissolved in water and 0.125% Kinetic®. The solution was sprayed until “run-off,” typically about 5 L/tree. […] Under field conditions, canopies should not be sprayed if rainfall is anticipated within 24 hours. For comparison purposes, 200 mg/L to 400 mg/L Ethrel® solutions and a 0.125% Kinetic® solution were applied to trees. After several days, usually 3 to 10, differences in fruit pull-force were measured between COR and other treatments and is an indication of fruit loosening ability. […] Differences in fruit drop were also measured by counting or weighing dropped fruit.

Hamlin orange = assay: Fruit pull-force reduction after spraying trees, Hamlin orange; conditions: for % reduction in fruit pull force, day 5: day 5, mean
Method: Data are the means of 6 replicate branches, with 10 fruit/branch. Bars above and below the means indicate standard error of the mean.
as §2

Valencia orange [2] = assay: Fruit pull-force reduction after spraying trees, Valencia orange; conditions: for % reduction in fruit pull force, day 5: 0.125% Kinetic, day 5, mean
Method: as §1, §2

[3] = COR compositions 200 or 300 mg/L

Row | SMILES | % fruit drop, day 5 (Valencia orange [1]; 200 mg/L spray to run-off) | % fruit drop, day 5 (Valencia orange [1]; 300 mg/L spray to run-off) | percentage of fruit drop as compared to Ethrel and the control (Valencia orange [1]; [3]) | % reduction in fruit pull force, day 5 (Hamlin orange; 200 mg/L spray to run-off) | % reduction in fruit pull force, day 5 (Hamlin orange; 300 mg/L spray to run-off) | reduction of fruit pull-force (Hamlin orange; [3]) | % reduction in fruit pull force, day 5 (Valencia orange [2]; 200 mg/L spray to run-off) | % reduction in fruit pull force, day 5 (Valencia orange [2]; 300 mg/L spray to run-off) | reduction of fruit pull-force (Valencia orange [2]; [3])
1 | CC[C@H]1C=C(C(=O)N[C@@]2(C(=O)O)C[C@@H]2CC)[C@H]2CCC(=O)[C@H]2C1 [COR, Coronatine] | 50% | 63.3% | substantially increased | 55% | 55.5% | approximately 95% | 96.1% | 96.3% | approximately 95%
2 | O=P(O)(O)CCCl [Ethrel ®, 2-chloroethyl phosphonic acid] | 13.3% |  |  | 64% |  |  | 71.7% |  | 
